# Source: patent US10597388B2, “Pyridazinone herbicides” (FMC CORPORATION, priority 2014, dated 2020)
# How the values were obtained:
# Format in all cases: in vivo
# [1] = test system: chickweed (common chickweed, Stellaria media); experiment: Test C greenhouse herbicide test, postemergence; settings: for Chickweed plant response rating: 62 g ai/ha
# Outline: (§1)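 Visual injury scores (0–100, where 100 means complete control) were assigned 13 to 15 d after postemergence application, by comparison with untreated plants. Treated seedlings stood 2 to 18 cm tall, at the 1- to 4-leaf stage.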
# [2] = test system: oat, wild (wild oat, Avena fatua); experiment: Test C greenhouse herbicide test, postemergence; settings: Postemergence
# Outline: as §1
# kochia (Kochia scoparia) = experiment: Test C greenhouse herbicide test, postemergence; settings: Postemergence
# Outline: as §1
# [3] = test system: blackgrass (Alopecurus myosuroides); experiment: Test C greenhouse herbicide test, pre- and postemergence
# Outline: (§2)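 Visual ratings on a 0 to 100 scale (0 = no effect, 100 = complete control) versus untreated controls, scored 13–15 d after treatment. Soil-applied preemergence to seeded loam/sand; foliar postemergence to 1- to 4-leaf plants (2–18 cm) in peat-vermiculite mix; compounds formulated in solvent plus surfactant.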
# [4] = test system: ragweed (common ragweed, Ambrosia elatior); experiment: as above
# Outline: as §2
# [5] = test system: ryegrass, Italian (Italian ryegrass, Lolium multiflorum); experiment: as above
# Outline: as §2
# [6] = test system: galium (catchweed bedstraw, Galium aparine); experiment: as above
# Outline: as §2
# soybean (Glycine max) = experiment: as above
# Outline: as §2
# [7] = test system: barnyardgrass (Echinochloa crus-galli); experiment: as above
# Outline: as §2
# [8] = test system: pigweed (Amaranthus retroflexus); experiment: as above
# Outline: as §2
# [9] = test system: nutsedge, yellow (yellow nutsedge, Cyperus esculentus); experiment: as above
# Outline: as §2
# [10] = test system: velvetleaf (Abutilon theophrasti); experiment: as above
# Outline: as §2
# [11] = test system: blackgrass (Alopecurus myosuroides); experiment: Test A greenhouse herbicide test, postemergence
# Outline: (§3)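 Pot-grown plants (loam soil/sand blend), 2–10 cm tall at the one- to two-leaf stage, received postemergence sprays of formulated test chemical. After about 10 d in the greenhouse, injury was rated visually against untreated controls on a 0 (no effect) to 100 (complete control) scale.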
# [12] = test system: galium (catchweed bedstraw, Galium aparine); experiment: Test A greenhouse herbicide test, postemergence
# Outline: as §3
# [13] = Postemergence, 31 g ai/ha, scale 0 to 100 (0 no effect, 100 complete control)
# [14] = Postemergence, 125 g ai/ha, scale 0 to 100, 0 is no effect, 100 is complete control
# [15] = Postemergence, 250 g ai/ha, scale 0 to 100, 0 no effect, 100 complete control, 13 to 15 d
# [16] = 31 g ai/ha, scale 0 to 100 (0 no effect, 100 complete control)
# [17] = 125 g ai/ha, scale 0 to 100, 0 is no effect, 100 is complete control
# [18] = 250 g ai/ha, scale 0 to 100, 0 no effect, 100 complete control, 13 to 15 d
# [19] = Preemergence, 31 g ai/ha, scale 0 to 100, 0 is no effect, 100 is complete control
# [20] = Preemergence, 62 g ai/ha, scale 0 to 100, 0 is no effect, 100 is complete control
# [21] = Preemergence, 125 g ai/ha, scale 0 to 100, 0 is no effect, 100 is complete control
# [22] = Preemergence, 250 g ai/ha, scale 0 to 100, 0 no effect, 100 complete control
# [23] = postemergence, 62 g ai/ha, scale 0 to 100, 0 no effect, 100 complete control
# [24] = 125 g ai/ha, 0 to 100 scale where 0 is no effect and 100 is complete control
# [25] = 500 g ai/ha, visual rating after approx. 10 d, 0 to 100 scale (0 no effect, 100 complete control)
# [26] = 62 g ai/ha, 0 to 100 scale (0 no effect, 100 complete control)
# [27] = Postemergence, 62 g ai/ha, 0 to 100 scale (0 no effect, 100 complete control)
compound,measurement,setting,value
Cc1nn(C)c(=O)c(-c2c(C)sc3ccc(C(F)(F)F)cc23)c1O [Compound 121],"Plant response rating, Chickweed",[1]; [13],90
same,"Plant response rating, Chickweed",[1]; [14],90
same,"Plant response rating, Chickweed",[1]; [15],98
same,Chickweed plant response rating,"[1]; postemergence, scale 0 to 100, 0 no effect, 100 complete control",90
same,"Plant response rating, Oat, Wild",[2]; [16],65
same,"Plant response rating, Oat, Wild",[2]; [17],80
same,"Plant response rating, Oat, Wild",[2]; [18],90
same,"Plant response rating, Kochia",kochia (Kochia scoparia); [16],90
same,"Plant response rating, Kochia",kochia (Kochia scoparia); [17],95
same,"Plant response rating, Kochia",kochia (Kochia scoparia); [18],95
same,"Plant response rating, Blackgrass",[3]; [13],0
same,"Plant response rating, Blackgrass",[3]; [14],15
same,"Plant response rating, Blackgrass",[3]; [15],50
same,"Plant response rating, Blackgrass",[3]; [19],10
same,"Plant response rating, Blackgrass",[3]; [20],45
same,"Plant response rating, Blackgrass",[3]; [21],45
same,Blackgrass plant response rating,[3]; [22],60
same,Blackgrass plant response rating,[3]; [23],15
same,"Plant response rating, Ragweed",[4]; [13],75
same,"Plant response rating, Ragweed",[4]; [14],95
same,"Plant response rating, Ragweed",[4]; [15],98
same,"Plant response rating, Ragweed",[4]; [19],35
same,"Plant response rating, Ragweed",[4]; [20],95
same,"Plant response rating, Ragweed",[4]; [21],98
same,Ragweed plant response rating,[4]; [22],98
same,"Plant response rating, Ryegrass, Italian",[5]; [13],85
same,"Plant response rating, Ryegrass, Italian",[5]; [14],90
same,"Plant response rating, Ryegrass, Italian",[5]; [15],90
same,"Plant response rating, Ryegrass, Italian",[5]; [19],75
same,"Plant response rating, Ryegrass, Italian",[5]; [20],90
same,"Plant response rating, Ryegrass, Italian",[5]; [21],95
same,"Ryegrass, Italian plant response rating",[5]; [22],100
same,"Plant response rating, Galium",[6]; [13],90
same,"Plant response rating, Galium",[6]; [14],95
same,"Plant response rating, Galium",[6]; [15],95
same,"Plant response rating, Galium",[6]; [19],90
same,"Plant response rating, Galium",[6]; [20],90
same,"Plant response rating, Galium",[6]; [21],98
same,Galium plant response rating,[6]; [22],100
same,"Plant response rating, Soybean",soybean (Glycine max); [13],0
same,"Plant response rating, Soybean",soybean (Glycine max); [14],0
same,"Plant response rating, Soybean",soybean (Glycine max); [15],0
same,"Plant response rating, Soybean",soybean (Glycine max); [19],0
same,"Plant response rating, Soybean",soybean (Glycine max); [20],0
same,"Plant response rating, Soybean",soybean (Glycine max); [21],0
same,Soybean plant response rating,soybean (Glycine max); [22],0
same,"Plant response rating, Barnyardgrass",[7]; [13],20
same,"Plant response rating, Barnyardgrass",[7]; [14],25
same,"Plant response rating, Barnyardgrass",[7]; [15],30
same,"Plant response rating, Barnyardgrass",[7]; [19],5
same,"Plant response rating, Barnyardgrass",[7]; [20],10
same,"Plant response rating, Barnyardgrass",[7]; [21],55
same,Barnyardgrass plant response rating,[7]; [22],60
same,Barnyardgrass plant response rating,[7]; [23],20
same,"Plant response rating, Pigweed",[8]; [13],75
same,"Plant response rating, Pigweed",[8]; [14],90
same,"Plant response rating, Pigweed",[8]; [15],98
same,"Plant response rating, Pigweed",[8]; [19],100
same,"Plant response rating, Pigweed",[8]; [20],98
same,"Plant response rating, Pigweed",[8]; [21],90
same,Pigweed plant response rating,[8]; [22],100
same,"Plant response rating, Nutsedge, Yellow",[9]; [13],45
same,"Plant response rating, Nutsedge, Yellow",[9]; [14],85
same,"Plant response rating, Nutsedge, Yellow",[9]; [15],75
same,"Plant response rating, Nutsedge, Yellow",[9]; [19],10
same,"Plant response rating, Nutsedge, Yellow",[9]; [20],25
same,"Plant response rating, Nutsedge, Yellow",[9]; [21],20
same,"Nutsedge, Yellow plant response rating",[9]; [22],50
same,"Plant response rating, Velvetleaf",[10]; [13],10
same,"Plant response rating, Velvetleaf",[10]; [14],75
same,"Plant response rating, Velvetleaf",[10]; [15],80
same,"Plant response rating, Velvetleaf",[10]; [19],60
same,"Plant response rating, Velvetleaf",[10]; [20],75
same,"Plant response rating, Velvetleaf",[10]; [21],85
same,Velvetleaf plant response rating,[10]; [22],95
same,"Plant response rating, Blackgrass",[11]; [24],20
same,"Plant response rating, Blackgrass",[11]; [25],50
same,"Plant response rating, Galium",[12]; [24],70
same,"Plant response rating, Galium",[12]; [25],90
Cc1nn(C)c(=O)c(-c2cccc3ccc(Br)cc23)c1O [Compound 126],"Plant response rating, Chickweed",[1]; [13],90
same,Chickweed plant response rating,"[1]; Postemergence, 0 to 100 scale (0 no effect, 100 complete control)",90
same,"Plant response rating, Chickweed",[1]; [14],95
same,"Plant response rating, Chickweed",[1]; [15],100
same,"Plant response rating, Oat, Wild",[2]; [16],60
same,"Oat, Wild plant response rating",[2]; [26],80
same,"Plant response rating, Oat, Wild",[2]; [17],90
same,"Plant response rating, Oat, Wild",[2]; [18],85
same,"Plant response rating, Kochia",kochia (Kochia scoparia); [16],90
same,Kochia plant response rating,kochia (Kochia scoparia); [26],90
same,"Plant response rating, Kochia",kochia (Kochia scoparia); [17],95
same,"Plant response rating, Kochia",kochia (Kochia scoparia); [18],95
same,"Plant response rating, Blackgrass",[3]; [13],5
same,Blackgrass plant response rating,[3]; [27],5
same,"Plant response rating, Blackgrass",[3]; [14],10
same,"Plant response rating, Blackgrass",[3]; [15],40
same,"Plant response rating, Ragweed",[4]; [13],85
same,Ragweed plant response rating,[4]; [27],90
same,"Plant response rating, Ragweed",[4]; [14],95
same,"Plant response rating, Ragweed",[4]; [15],95
same,"Plant response rating, Ryegrass, Italian",[5]; [13],80
same,"Ryegrass, Italian plant response rating",[5]; [27],85
same,"Plant response rating, Ryegrass, Italian",[5]; [14],90
same,"Plant response rating, Ryegrass, Italian",[5]; [15],90
same,"Plant response rating, Galium",[6]; [13],90
same,Galium plant response rating,[6]; [27],95
same,"Plant response rating, Galium",[6]; [14],98
same,"Plant response rating, Galium",[6]; [15],98
same,"Plant response rating, Soybean",soybean (Glycine max); [13],5
same,Soybean plant response rating,soybean (Glycine max); [27],10
same,"Plant response rating, Soybean",soybean (Glycine max); [14],20
same,"Plant response rating, Soybean",soybean (Glycine max); [15],35
same,"Plant response rating, Barnyardgrass",[7]; [13],25
same,Barnyardgrass plant response rating,[7]; [27],30
same,"Plant response rating, Barnyardgrass",[7]; [14],35
same,"Plant response rating, Barnyardgrass",[7]; [15],50
same,"Plant response rating, Pigweed",[8]; [13],85
same,Pigweed plant response rating,[8]; [27],90
same,"Plant response rating, Pigweed",[8]; [14],95
same,"Plant response rating, Pigweed",[8]; [15],95
same,"Plant response rating, Nutsedge, Yellow",[9]; [13],35
same,"Nutsedge, Yellow plant response rating",[9]; [27],60
same,"Plant response rating, Nutsedge, Yellow",[9]; [14],70
same,"Plant response rating, Nutsedge, Yellow",[9]; [15],85
same,"Plant response rating, Velvetleaf",[10]; [13],30
same,Velvetleaf plant response rating,[10]; [27],85
same,"Plant response rating, Velvetleaf",[10]; [14],98
same,"Plant response rating, Velvetleaf",[10]; [15],95
same,"Plant response rating, Blackgrass",[11]; [24],60
same,"Plant response rating, Blackgrass",[11]; [25],70
same,"Plant response rating, Galium",[12]; [24],100
same,"Plant response rating, Galium",[12]; [25],100
